Reference: BigSolDB 2.1

Molecule CC(=O)C1=CC[C@H]2[C@@H]3CCC4=CC(=O)C=C[C@]4(C)[C@H]3[C@@H](O)C[C@]12C has a solubility (mole fraction) (in acetone, 298.15 K) of 0.00192, a solubility (mole fraction) (in acetone, 303.15 K) of 0.00215 and a solubility (mole fraction) (in acetone, 308.15 K) of 0.00243. It also gave a solubility (mole fraction) (in acetone, 313.15 K) of 0.00275, a solubility (mole fraction) (in acetone, 318.15 K) of 0.00303 and a solubility (mole fraction) (in acetone, 323.15 K) of 0.00351. The solubility (mole fraction) (in acetone, 328.15 K) was 0.0038, the solubility (mole fraction) (in ethanol, 298.15 K) was 0.00213 and the solubility (mole fraction) (in ethanol, 303.15 K) was 0.00252. It also gave a solubility (mole fraction) (in ethanol, 308.15 K) of 0.00291, a solubility (mole fraction) (in ethanol, 313.15 K) of 0.00335 and a solubility (mole fraction) (in ethanol, 318.15 K) of 0.00395. It also gave a solubility (mole fraction) (in ethanol, 323.15 K) of 0.00461, a solubility (mole fraction) (in ethanol, 328.15 K) of 0.00541 and a solubility (mole fraction) (in ethanol, 333.15 K) of 0.00625. It also gave a solubility (mole fraction) (in ethanol, 338.15 K) of 0.00722, a solubility (mole fraction) (in ethanol, 343.15 K) of 0.00844 and a solubility (mole fraction) (in ethanol, 348.15 K) of 0.0097.
